Results reported in patent publication US11014912B2, “Cyanopyrrolidine derivatives with activity as inhibitors of USP30” (MISSION THERAPEUTICS LIMITED, priority 2016, dated 2021).

Target: USP30 (Homo sapiens (Human), UniProt Q70CQ3)
Test: USP30 biochemical IC50 assay
Conditions: fluorescence polarisation, TAMRA labelled peptide linked to ubiquitin substrate; enzyme and compound incubated 30 min at room temp; read after 2 h; read-out: IC50 range
Description: USP30 Biochemical IC50 Assay
Dilution plates were prepared at 21 times the final concentration (2100 μM for a final concentration of 100 μM) in 50% DMSO in a 96-well polypropylene V-bottom plate (Greiner #651201). A typical 8-point dilution series would be 100, 30, 10, 3, 1, 0.3, 0.1, 0.03 μM final. Reactions were performed in duplicate in black 384 well plates (small volume, Greiner 784076) in a final reaction volume of 21 μl. Either 1 μl of 50% DMSO or diluted compound was added to the plate. USP30 was diluted in reaction buffer (40 mM Tris, pH 7.5, 0.005% Tween 20, 0.5 mg/ml BSA, 5 mM beta-mercaptoethanol) to the equivalent of 0.05 μl/well and 10 μl of diluted USP30 was added to the compound. Enzyme and compound were incubated for 30 min at room temp. Reactions were initiated by the addition of 50 nM of TAMRA labelled peptide linked to ubiquitin via an iso-peptide bond as fluorescence polarisation substrate. Reactions were read immediately after addition of substrate and following a 2 h incubation at room temperature. Readings were performed on a Pherastar Plus (BMG Labtech). A Excitation 540 nm; A Emission 590 nm.

Sequence of USP30 (Q70CQ3 57-517): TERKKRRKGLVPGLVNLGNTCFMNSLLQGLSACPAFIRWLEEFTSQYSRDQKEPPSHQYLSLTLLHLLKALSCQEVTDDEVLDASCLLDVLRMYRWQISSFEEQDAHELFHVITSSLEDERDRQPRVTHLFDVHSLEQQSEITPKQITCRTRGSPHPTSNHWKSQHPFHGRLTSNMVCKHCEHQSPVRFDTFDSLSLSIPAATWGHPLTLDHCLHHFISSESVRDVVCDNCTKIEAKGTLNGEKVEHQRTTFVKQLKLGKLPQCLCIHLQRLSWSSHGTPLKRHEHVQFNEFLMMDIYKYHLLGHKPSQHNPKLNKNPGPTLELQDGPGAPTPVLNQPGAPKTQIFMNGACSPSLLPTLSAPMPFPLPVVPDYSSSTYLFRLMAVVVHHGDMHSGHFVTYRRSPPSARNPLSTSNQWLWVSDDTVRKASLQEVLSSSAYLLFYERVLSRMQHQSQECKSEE

Row | IC50 | SMILES
1 | 100 to 1000 nM | N#CN1CCC(CC(=O)Nc2cc(C(F)(F)F)ccn2)C1 (stereo not shown) [Example 45, 2-(1-cyanopyrrolidin-3-yl)-N-(4-(trifluoromethyl)pyridin-2-yl)acetamide]
2 | 1000 to 10000 nM | N#Cc1ccc(NC(=O)CC2CCN(C#N)C2)nc1 (stereo not shown) [Example 46, N-(5-cyanopyridin-2-yl)-2-(1-cyanopyrrolidin-3-yl)acetamide]
3 | 100 to 1000 nM | N#CN1CCC(CC(=O)NC2CN(c3ccccn3)C2)C1 (stereo not shown) [Example 47, 2-(1-cyanopyrrolidin-3-yl)-N-(1-(pyridin-2-yl)azetidin-3-yl)acetamide]
4 | 100 to 1000 nM | N#CN1CC[C@@H](CC(=O)Nc2nnc(-c3cccc(Cl)c3)o2)C1 [Example 48, (S)-N-(5-(3-chlorophenyl)-1,3,4-oxadiazol-2-yl)-2-(1-cyanopyrrolidin-3-yl)acetamide]
5 | 100 to 1000 nM | N#Cc1cccc(-c2nnc(NC(=O)CC3CCN(C#N)C3)o2)c1 (stereo not shown) [Example 49, N-(5-(3-cyanophenyl)-1,3,4-oxadiazol-2-yl)-2-(1-cyanopyrrolidin-3-yl)acetamide]
6 | 1 to 10 nM | C[C@H](C(=O)Nc1cc(-c2cccc(Cl)c2)no1)[C@@H]1CCN(C#N)C1 [Example 50, (S)-N-(3-(3-chlorophenyl)isoxazol-5-yl)-2-((S)-1-cyanopyrrolidin-3-yl)propanamide]
7 | 1 to 10 nM | N#Cc1cccc(-c2cc(NC(=O)C[C@H]3CCN(C#N)C3)on2)c1 [Example 51, (R)-N-(3-(3-cyanophenyl)isoxazol-5-yl)-2-(1-cyanopyrrolidin-3-yl)acetamide]
8 | 100 to 1000 nM | N#Cc1ccc(C2CN(C(=O)C[C@@H]3CCN(C#N)C3)C2)cc1 [Example 52, (S)-3-(2-(3-(4-cyanophenyl)azetidin-1-yl)-2-oxoethyl)pyrrolidine-1-carbonitrile]
9 | 10 to 100 nM | C[C@@H](C(=O)Nc1cc(-c2cccc(Cl)c2)no1)[C@@H]1CCN(C#N)C1 [Example 53, (R)-N-(3-(3-chlorophenyl)isoxazol-5-yl)-2-((S)-1-cyanopyrrolidin-3-yl)propanamide]
10 | 1 to 10 nM | N#CN1CC[C@H](CC(=O)Nc2cc(-c3cccc(OC(F)(F)F)c3)no2)C1 [Example 54, (R)-2-(1-cyanopyrrolidin-3-yl)-N-(3-(3-(trifluoromethoxy)phenyl)isoxazol-5-yl)acetamide]
11 | 1 to 10 nM | N#Cc1cccc(-c2cc(NC(=O)C[C@H]3CCN(C#N)C3)no2)c1 [Example 55, (R)-N-(5-(3-cyanophenyl)isoxazol-3-yl)-2-(1-cyanopyrrolidin-3-yl)acetamide]
12 | 100 to 1000 nM | N#Cc1cccc(C2CN(C(=O)C[C@@H]3CCN(C#N)C3)C2)c1 [Example 56, (S)-3-(2-(3-(3-cyanophenyl)azetidin-1-yl)-2-oxoethyl)pyrrolidine-1-carbonitrile]
13 | 100 to 1000 nM | N#Cc1ccc(C2CN(C(=O)C[C@@H]3CCN(C#N)C3)C2)nc1 [Example 57, (S)-6-(1-(2-(1-cyanopyrrolidin-3-yl)acetyl)azetidin-3-yl)nicotinonitrile]
14 | 100 to 1000 nM | N#CN1CCC(CC(=O)N2CC(c3ccc(O)cc3)C2)C1 (stereo not shown) [Example 58, 3-(2-(3-(4-hydroxyphenyl)azetidin-1-yl)-2-oxoethyl)pyrrolidine-1-carbonitrile]
15 | 10 to 100 nM | Cc1cc(C2CN(C(=O)C[C@@H]3CCN(C#N)C3)C2)ccc1C#N [Example 59, (S)-3-(2-(3-(4-cyano-3-methylphenyl)azetidin-1-yl)-2-oxoethyl)pyrrolidine-1-carbonitrile]
16 | 100 to 1000 nM | CN(C)C(=O)c1ccc(C2CN(C(=O)C[C@@H]3CCN(C#N)C3)C2)cc1 [Example 60, (S)-4-(1-(2-(1-cyanopyrrolidin-3-yl)acetyl)azetidin-3-yl)-N,N-dimethylbenzamide]
17 | 1000 to 10000 nM | N#CN1CC[C@H](CC(=O)Nc2nnc(-c3ccccc3)s2)C1 [Example 63, (R)-2-(1-cyanopyrrolidin-3-yl)-N-(5-phenyl-1,3,4-thiadiazol-2-yl)acetamide]
18 | 100 to 1000 nM | N#CN1CC[C@@H](CC(=O)Nc2nnc(-c3ccccc3)s2)C1 [Example 64, (S)-2-(1-cyanopyrrolidin-3-yl)-N-(5-phenyl-1,3,4-thiadiazol-2-yl)acetamide]
19 | 100 to 1000 nM | CC(C)Oc1ccc(C2CN(C(=O)C[C@@H]3CCN(C#N)C3)C2)nc1 [Example 65, (S)-3-(2-(3-(5-isopropoxypyridin-2-yl)azetidin-1-yl)-2-oxoethyl)pyrrolidine-1-carbonitrile]
20 | 1000 to 10000 nM | COCCOc1ccc(C2CN(C(=O)C[C@@H]3CCN(C#N)C3)C2)cc1 [Example 66, (S)-3-(2-(3-(4-(2-methoxyethoxy)phenyl)azetidin-1-yl)-2-oxoethyl)pyrrolidine-1-carbonitrile]
21 | 10 to 100 nM | COc1ccc(C2CN(C(=O)C[C@@H]3CCN(C#N)C3)C2)cc1-c1cnn(C)c1 [Example 67, (S)-3-(2-(3-(4-methoxy-3-(1-methyl-1H-pyrazol-4-yl)phenyl)azetidin-1-yl)-2-oxoethyl)pyrrolidine-1-carbonitrile]
22 | 10 to 100 nM | COc1cccc(C2CN(C(=O)C[C@@H]3CCN(C#N)C3)C2)c1F [Example 68, (S)-3-(2-(3-(2-fluoro-3-methoxyphenyl)azetidin-1-yl)-2-oxoethyl)pyrrolidine-1-carbonitrile]
